# Measurements as given in US5635359A, “Method for measuring the activity of angiotensin converting enzyme in biological samples” (priority 1991, dated 1997).
# Assays:
# [1] = system: angiotensin converting enzyme (ACE); test: Plasma ACE-activity, trapping-assay (Ang I substrate, monoclonal antibody TRAP, RIA) after oral enalapril; format: in vivo, human; conditions: for ACE-activity measured in vitro with the trapping-assay as percent of baseline / ACE-Activity trapping-assay: mean ± SEM; for ACE-Activity trapping-assay: healthy humans, single oral dose 20 mg enalapril
# Method: (§1) Ten normal volunteers aged 20 to 28 years (body weight 63 to 85 kg) participated in the study. On the study day, they came to the hospital at 7 a.m. and were installed in a supine position. At 8 a.m., the subjects ingested 20 mg enalapril, an inhibitor of angiotensin converting enzyme. Venous blood samples were collected before (time 0) and at 0.5, 1, 2, 4, 8 and 24 hours after enalapril intake. The subjects remained in supine position for one hour prior to blood sampling and no food intake was permitted within three hours prior to sampling.
# (§2) For the measurement of ACE-activity, blood samples (5 ml) were collected from the antecubital vein into prechilled glass tubes containing heparin (56 USP) and 25 μl renin inhibitor CGP 29287 (Ciba-Geigy, Basel, Switzerland) at 1 mM in water. Blood was centrifuged at 4° C. and 2000 g for 10 minutes and plasma aliquots of 0.5 ml were snap frozen in liquid nitrogen and stored at -70° C. until analyzed.
# All procedures were done in an ice-water bath unless stated otherwise: Plasma was thawed and centrifuged at 4° C. and 40 μl supernatant was pipetted into a small polypropylene tube. Ten microliter monoclonal antibody TRAP (which was secreted from the Hybridoma cell line TRAP DSM ACC2003) was added (mouse ascites diluted 1:8400 in 3M tris buffer at pH 7.3). One picomole angiotensin I was added in 10 microliter albumin buffer containing--for blank determination only--EDTA at 0.2M concentration. After mixing and cold centrifugation in order to concentrate the mixture at the bottom of the tube (1 minute at 2000 g) samples were incubated in a water bath at 37° C. for 20 minutes. Incubation was stopped by returning the samples to the ice-water bath. Forty microliters of albumin buffer without/with 0.2M EDTA was added to blanks/samples in order to equalize conditions. Each tube (total 100 microliters) finally received 1 ml albumin buffer containing 1 fmol ^125 I-Ang II (2000 counts per minute) and EDTA at 0.02M concentration. After a 24 hour incubation at 4° C., antibody-bound and free Ang II were separated by adding 0.3 ml water containing 2% dextran-coated charcoal, mixing for 10 minutes, centrifugation at 4° C. (for 20 minutes at 6000 g) and decanting of the supernatant. Supernatant and pellet were counted in a ten-well scintillation counter (GammamasterR, Wallac, Turku, Finland) and generated Ang II was read from a simultaneously established standard curve.
# For the standard curve, increasing amounts of unlabeled Ang II ranging from 16 to 4000 fmol in 40 μl pool plasma which contained unmeasurably low endogenous Ang I and Ang II and renin inhibitor CGP 29287 at 0.01 mM concentration; antibody in 3M tris buffer (10 μl) and 1000 fmol Ang I in EDTA-albumin buffer (10 μl) were added in order to obtain identical conditions as for the unknown samples.
# [2] = system: angiotensin converting enzyme (ACE); test: Plasma ACE-activity, conventional assay (substrate carbobenzoxy-Phe-His-Leu) after oral enalapril; format: in vivo, human; conditions: for Plasma ACE-activity by the conventional method, % of pretreatment values / ACE-Activity Conventional assay: mean ± SEM; for ACE-Activity Conventional assay: healthy humans, single oral dose 20 mg enalapril
# Method: as §1, §2
# (§3) Plasma ACE-activity was also measured by an established method using as substrate synthetic carbobenzoxy-Phe-His-Leu at 1.8 mM concentration (Piquilloud Y., Reinharz A., Roth M.. Biochem. Biophys. Acta 1970; 206: 136-142). The ratio of the plasma concentrations Ang II/Ang I was used for estimation of ACE-activity "in vivo" (Nussberger J., Juillerat L., Perret F., Waeber B., Bellet M., Brunner H. R., Menard J., Am Heart J. 1989; 117: 717-722).
# angiotensin I = test: Plasma angiotensin I concentration after oral enalapril; format: in vivo, human; conditions: healthy humans, single oral dose 20 mg enalapril, mean ± SEM
# Method: as §1
# (§4) For the measurement of Ang II (Nussberger J., Brunner D. B., Waeber B., Brunner H. R., Hypertension 1985; 7 (Suppl. I): 11-17) and immunoreactive Ang I (Nussberger J., Brunner D. B., Waeber B., Brunner H. R., Life Sci. 1988; 42:1683-1688), another 10 ml blood were collected on an inhibitor cocktail containing EDTA and renin inhibitor to prevent degradation and generation of these peptides in vitro. Samples were centrifuged at 4° C. and plasma aliquots of 2.2 ml snap frozen and stored as described above.
# angiotensin II = test: Plasma angiotensin II concentration after oral enalapril; format: in vivo, human; conditions: healthy humans, single oral dose 20 mg enalapril, mean ± SEM
# Method: as §1, §4
# [3] = system: angiotensin converting enzyme (ACE); test: Ratio of plasma Ang II/Ang I as in vivo ACE-activity after oral enalapril; parameters: species or system human; conditions: for In vivo ACE-activity (ratio of plasma Ang II to Ang I) as percent of baseline / Ratio Ang II/Ang I: mean ± SEM; for Ratio Ang II/Ang I: plasma, healthy humans, single oral dose 20 mg enalapril
# Method: as §1, §4, §3
# [4] = 4 hours post enalapril intake (20 mg oral)
# [5] = 8 hours post enalapril intake (20 mg oral)
# [6] = 24 hours post enalapril intake (20 mg oral)
structure (smiles),measurement,setting,value
CCOC(=O)[C@H](CCc1ccccc1)N[C@@H](C)C(=O)N1CCC[C@H]1C(=O)O [enalapril],ACE-activity measured in vitro with the trapping-assay as percent of baseline,[1]; [4],3.6±2.4%
same,ACE-activity measured in vitro with the trapping-assay as percent of baseline,[1]; [5],1.3±1.3%
same,ACE-activity measured in vitro with the trapping-assay as percent of baseline,[1]; [6],27.4±3.4%
same,"Plasma ACE-activity measured in vitro, trapping method, returned to",[1]; at 24 hours,27%
same,"Decrease of plasma ACE-activity measured in vitro, trapping method",[1]; at peak inhibition,99%
same,ACE-Activity trapping-assay,[1]; 0.5 h after intake,295 ± 27 fmol/mL/min
same,ACE-Activity trapping-assay,[1]; 1 h after intake,107 ± 17 fmol/mL/min
same,ACE-Activity trapping-assay,[1]; 2 h after intake,28 ± 8 fmol/mL/min
same,ACE-Activity trapping-assay,[1]; 4 h after intake,15 ± 10 fmol/mL/min
same,ACE-Activity trapping-assay,[1]; 8 h after intake,5 ± 5 fmol/mL/min
same,ACE-Activity trapping-assay,[1]; 24 h after intake,87 ± 10 fmol/mL/min
same,"Plasma ACE-activity by the conventional method, % of pretreatment values",[2]; 4 hours after enalapril administration (20 mg oral),16.5±1.7%
same,"Plasma ACE-activity by the conventional method, % of pretreatment values",[2]; 8 hours after enalapril administration (20 mg oral),20.8±1.7%
same,"Plasma ACE-activity by the conventional method, % of pretreatment values",[2]; 24 hours after enalapril administration (20 mg oral),62.6±1.6%
same,"ACE-activity, conventional method, return towards baseline",[2]; at 24 hours,66%
same,"Peak ACE-inhibition, decrease from baseline, conventional method",[2]; at peak inhibition,83%
same,ACE-Activity Conventional assay,[2]; 0.5 h after intake,18.1 ± 1.7 nmol/mL/min
same,ACE-Activity Conventional assay,[2]; 1 h after intake,12.1 ± 1.2 nmol/mL/min
same,ACE-Activity Conventional assay,[2]; 2 h after intake,4.5 ± 0.8 nmol/mL/min
same,ACE-Activity Conventional assay,[2]; 4 h after intake,3.0 ± 0.4 nmol/mL/min
same,ACE-Activity Conventional assay,[2]; 8 h after intake,3.7 ± 0.4 nmol/mL/min
same,ACE-Activity Conventional assay,[2]; 24 h after intake,11.2 ± 1.0 nmol/mL/min
same,Angiotensin I,angiotensin I; 0.5 h after intake,7.3 ± 1.5 fmol/mL
same,Angiotensin I,angiotensin I; 1 h after intake,13.5 ± 3.0 fmol/mL
same,Angiotensin I,angiotensin I; 2 h after intake,45.7 ± 12.9 fmol/mL
same,Angiotensin I,angiotensin I; 4 h after intake,66.8 ± 17.6 fmol/mL
same,Angiotensin I,angiotensin I; 8 h after intake,76.6 ± 15.9 fmol/mL
same,Angiotensin I,angiotensin I; 24 h after intake,32.1 ± 6.4 fmol/mL
same,Angiotensin II,angiotensin II; 0.5 h after intake,4.6 ± 0.5 fmol/mL
same,Angiotensin II,angiotensin II; 1 h after intake,2.9 ± 0.5 fmol/mL
same,Angiotensin II,angiotensin II; 2 h after intake,1.1 ± 0.3 fmol/mL
same,Angiotensin II,angiotensin II; 4 h after intake,1.0 ± 0.2 fmol/mL
same,Angiotensin II,angiotensin II; 8 h after intake,1.6 ± 0.4 fmol/mL
same,Angiotensin II,angiotensin II; 24 h after intake,3.8 ± 0.5 fmol/mL
same,In vivo ACE-activity (ratio of plasma Ang II to Ang I) as percent of baseline,[3]; [4],2.1±0.3%
same,In vivo ACE-activity (ratio of plasma Ang II to Ang I) as percent of baseline,[3]; [5],2.0±0.4%
same,In vivo ACE-activity (ratio of plasma Ang II to Ang I) as percent of baseline,[3]; [6],21.9±5.0%
same,In vivo ACE-activity (ratio of plasma Ang II to Ang I) returned to,[3]; at 24 hours,22%
same,Decrease of in vivo ACE-activity (ratio of plasma Ang II to Ang I),[3]; at peak inhibition,98%
same,Ratio Ang II/Ang I,[3]; 0.5 h after intake,.748 ± .101
same,Ratio Ang II/Ang I,[3]; 1 h after intake,.315 ± .094
same,Ratio Ang II/Ang I,[3]; 2 h after intake,.029 ± .006
same,Ratio Ang II/Ang I,[3]; 4 h after intake,.015 ± .003
same,Ratio Ang II/Ang I,[3]; 8 h after intake,.016 ± .003
same,Ratio Ang II/Ang I,[3]; 24 h after intake,.147 ± .027
